What was measured:
Conditions in all cases: Compound concentration 10 µM
[1] = molecular target: T1, Alpha-2C adrenergic receptor (Homo sapiens) (UniProt P18825)
T1 sequence (whole entry): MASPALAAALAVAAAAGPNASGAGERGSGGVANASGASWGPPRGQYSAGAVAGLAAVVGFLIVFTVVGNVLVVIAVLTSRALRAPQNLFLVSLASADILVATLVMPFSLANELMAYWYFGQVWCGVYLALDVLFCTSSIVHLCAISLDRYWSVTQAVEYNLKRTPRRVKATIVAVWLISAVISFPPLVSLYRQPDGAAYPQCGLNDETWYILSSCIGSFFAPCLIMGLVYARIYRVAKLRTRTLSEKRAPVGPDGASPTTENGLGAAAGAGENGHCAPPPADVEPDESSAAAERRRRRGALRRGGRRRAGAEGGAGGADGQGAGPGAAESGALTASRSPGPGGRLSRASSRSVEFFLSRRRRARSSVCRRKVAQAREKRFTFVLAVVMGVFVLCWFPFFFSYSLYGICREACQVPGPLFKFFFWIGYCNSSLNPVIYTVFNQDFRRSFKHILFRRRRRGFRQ
Description: PDSP Primary Binding target: ADRA2C - Compounds are tested at 10 uM concentration, plate are incubated at room temperature in the dark for 90 minutes. Reaction are stopped by vacuum filtration onto 0.3% polyethyleneimine soaked filter mats using Filtermate harvester. Scintilation cocktail is then melted onto microwave-dried filters on a hot plate and the radio activity is counted in Microbia counter.

[2] = molecular target: Beta-1 adrenergic receptor (Homo sapiens) (UniProt P08588)
Description: PDSP Primary Binding target: ADRB1 - Compounds are tested at 10 uM concentration, plate are incubated at room temperature in the dark for 90 minutes. Reaction are stopped by vacuum filtration onto 0.3% polyethyleneimine soaked filter mats using Filtermate harvester. Scintilation cocktail is then melted onto microwave-dried filters on a hot plate and the radio activity is counted in Microbia counter.

[3] = molecular target: Beta-2 adrenergic receptor (Homo sapiens) (UniProt P07550)
Description: PDSP Primary Binding target: ADRB2 - Compounds are tested at 10 uM concentration, plate are incubated at room temperature in the dark for 90 minutes. Reaction are stopped by vacuum filtration onto 0.3% polyethyleneimine soaked filter mats using Filtermate harvester. Scintilation cocktail is then melted onto microwave-dried filters on a hot plate and the radio activity is counted in Microbia counter.

[4] = molecular target: 5-hydroxytryptamine receptor 2A (Homo sapiens) (UniProt P28223)
Description: PDSP Primary Binding target: HTR2A - Compounds are tested at 10 uM concentration, plate are incubated at room temperature in the dark for 90 minutes. Reaction are stopped by vacuum filtration onto 0.3% polyethyleneimine soaked filter mats using Filtermate harvester. Scintilation cocktail is then melted onto microwave-dried filters on a hot plate and the radio activity is counted in Microbia counter.

[5] = molecular target: 5-hydroxytryptamine receptor 6 (Homo sapiens) (UniProt P50406)
Description: PDSP Primary Binding target: HTR6 - Compounds are tested at 10 uM concentration, plate are incubated at room temperature in the dark for 90 minutes. Reaction are stopped by vacuum filtration onto 0.3% polyethyleneimine soaked filter mats using Filtermate harvester. Scintilation cocktail is then melted onto microwave-dried filters on a hot plate and the radio activity is counted in Microbia counter.

[6] = molecular target: 5-hydroxytryptamine receptor 7 (Homo sapiens) (UniProt P34969)
Description: PDSP Primary Binding target: HTR7 - Compounds are tested at 10 uM concentration, plate are incubated at room temperature in the dark for 90 minutes. Reaction are stopped by vacuum filtration onto 0.3% polyethyleneimine soaked filter mats using Filtermate harvester. Scintilation cocktail is then melted onto microwave-dried filters on a hot plate and the radio activity is counted in Microbia counter.

[7] = molecular target: Delta-type opioid receptor (Homo sapiens) (UniProt P41143)
Description: PDSP Primary Binding target: OPRD1 - Compounds are tested at 10 uM concentration, plate are incubated at room temperature in the dark for 90 minutes. Reaction are stopped by vacuum filtration onto 0.3% polyethyleneimine soaked filter mats using Filtermate harvester. Scintilation cocktail is then melted onto microwave-dried filters on a hot plate and the radio activity is counted in Microbia counter.

[8] = molecular target: Mu-type opioid receptor (Homo sapiens) (UniProt P35372)
Description: PDSP Primary Binding target: OPRM1 - Compounds are tested at 10 uM concentration, plate are incubated at room temperature in the dark for 90 minutes. Reaction are stopped by vacuum filtration onto 0.3% polyethyleneimine soaked filter mats using Filtermate harvester. Scintilation cocktail is then melted onto microwave-dried filters on a hot plate and the radio activity is counted in Microbia counter.

[9] = molecular target: Sodium-dependent dopamine transporter (Homo sapiens) (UniProt Q01959)
Description: PDSP Primary Binding target: SLC6A3 - Compounds are tested at 10 uM concentration, plate are incubated at room temperature in the dark for 90 minutes. Reaction are stopped by vacuum filtration onto 0.3% polyethyleneimine soaked filter mats using Filtermate harvester. Scintilation cocktail is then melted onto microwave-dried filters on a hot plate and the radio activity is counted in Microbia counter.

[10] = molecular target: Sigma intracellular receptor 2 (Homo sapiens) (UniProt Q5BJF2)
Description: PDSP Primary Binding target: TMEM97 - Compounds are tested at 10 uM concentration, plate are incubated at room temperature in the dark for 90 minutes. Reaction are stopped by vacuum filtration onto 0.3% polyethyleneimine soaked filter mats using Filtermate harvester. Scintilation cocktail is then melted onto microwave-dried filters on a hot plate and the radio activity is counted in Microbia counter.

[11] = molecular target: Beta-3 adrenergic receptor (Homo sapiens) (UniProt P13945)
Description: PDSP Primary Binding target: ADRB3 - Compounds are tested at 10 uM concentration, plate are incubated at room temperature in the dark for 90 minutes. Reaction are stopped by vacuum filtration onto 0.3% polyethyleneimine soaked filter mats using Filtermate harvester. Scintilation cocktail is then melted onto microwave-dried filters on a hot plate and the radio activity is counted in Microbia counter.

[12] = molecular target: Histamine H2 receptor (Homo sapiens) (UniProt P25021)
Description: PDSP Primary Binding target: HRH2 - Compounds are tested at 10 uM concentration, plate are incubated at room temperature in the dark for 90 minutes. Reaction are stopped by vacuum filtration onto 0.3% polyethyleneimine soaked filter mats using Filtermate harvester. Scintilation cocktail is then melted onto microwave-dried filters on a hot plate and the radio activity is counted in Microbia counter.

[13] = molecular target: T2, Alpha-1B adrenergic receptor (Homo sapiens) (UniProt P35368)
T2 sequence (whole entry): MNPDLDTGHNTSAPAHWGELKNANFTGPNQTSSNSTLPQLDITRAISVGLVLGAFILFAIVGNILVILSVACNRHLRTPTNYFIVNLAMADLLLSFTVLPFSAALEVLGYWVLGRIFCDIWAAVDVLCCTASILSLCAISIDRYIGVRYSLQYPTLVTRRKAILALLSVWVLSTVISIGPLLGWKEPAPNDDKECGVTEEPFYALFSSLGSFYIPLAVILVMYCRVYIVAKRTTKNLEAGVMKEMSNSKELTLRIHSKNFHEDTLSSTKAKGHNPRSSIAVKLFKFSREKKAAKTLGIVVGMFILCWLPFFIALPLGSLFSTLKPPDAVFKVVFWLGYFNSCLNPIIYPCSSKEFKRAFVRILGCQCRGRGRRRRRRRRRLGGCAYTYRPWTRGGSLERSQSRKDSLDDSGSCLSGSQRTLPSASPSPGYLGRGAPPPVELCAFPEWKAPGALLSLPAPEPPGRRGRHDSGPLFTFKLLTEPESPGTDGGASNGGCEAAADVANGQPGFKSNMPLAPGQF
Description: PDSP Primary Binding target: ADRA1B - Compounds are tested at 10 uM concentration, plate are incubated at room temperature in the dark for 90 minutes. Reaction are stopped by vacuum filtration onto 0.3% polyethyleneimine soaked filter mats using Filtermate harvester. Scintilation cocktail is then melted onto microwave-dried filters on a hot plate and the radio activity is counted in Microbia counter.

[14] = molecular target: D(1A) dopamine receptor (Homo sapiens) (UniProt P21728)
Description: PDSP Primary Binding target: DRD1 - Compounds are tested at 10 uM concentration, plate are incubated at room temperature in the dark for 90 minutes. Reaction are stopped by vacuum filtration onto 0.3% polyethyleneimine soaked filter mats using Filtermate harvester. Scintilation cocktail is then melted onto microwave-dried filters on a hot plate and the radio activity is counted in Microbia counter.

[15] = molecular target: 5-hydroxytryptamine receptor 1D (Homo sapiens) (UniProt P28221)
Description: PDSP Primary Binding target: HTR1D - Compounds are tested at 10 uM concentration, plate are incubated at room temperature in the dark for 90 minutes. Reaction are stopped by vacuum filtration onto 0.3% polyethyleneimine soaked filter mats using Filtermate harvester. Scintilation cocktail is then melted onto microwave-dried filters on a hot plate and the radio activity is counted in Microbia counter.

[16] = molecular target: Sodium-dependent noradrenaline transporter (Homo sapiens) (UniProt P23975)
Description: PDSP Primary Binding target: SLC6A2 - Compounds are tested at 10 uM concentration, plate are incubated at room temperature in the dark for 90 minutes. Reaction are stopped by vacuum filtration onto 0.3% polyethyleneimine soaked filter mats using Filtermate harvester. Scintilation cocktail is then melted onto microwave-dried filters on a hot plate and the radio activity is counted in Microbia counter.

[17] = molecular target: T3, Muscarinic acetylcholine receptor M4 (Homo sapiens) (UniProt P08173)
T3 sequence (whole entry): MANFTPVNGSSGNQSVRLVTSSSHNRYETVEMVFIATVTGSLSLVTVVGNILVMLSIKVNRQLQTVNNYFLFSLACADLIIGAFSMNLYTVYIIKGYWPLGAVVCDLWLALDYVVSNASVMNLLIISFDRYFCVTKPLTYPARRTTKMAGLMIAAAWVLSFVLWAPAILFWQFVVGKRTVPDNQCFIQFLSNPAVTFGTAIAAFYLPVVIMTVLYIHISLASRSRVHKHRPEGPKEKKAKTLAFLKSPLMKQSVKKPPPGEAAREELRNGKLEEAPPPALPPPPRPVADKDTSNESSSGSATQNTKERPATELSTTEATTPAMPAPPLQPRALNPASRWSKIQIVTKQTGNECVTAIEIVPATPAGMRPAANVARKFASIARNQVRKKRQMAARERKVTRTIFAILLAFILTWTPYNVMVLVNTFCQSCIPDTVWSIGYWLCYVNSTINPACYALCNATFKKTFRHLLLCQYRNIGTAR
Description: PDSP Primary Binding target: CHRM4 - Compounds are tested at 10 uM concentration, plate are incubated at room temperature in the dark for 90 minutes. Reaction are stopped by vacuum filtration onto 0.3% polyethyleneimine soaked filter mats using Filtermate harvester. Scintilation cocktail is then melted onto microwave-dried filters on a hot plate and the radio activity is counted in Microbia counter.

[18] = molecular target: T4, Muscarinic acetylcholine receptor M1 (Homo sapiens) (UniProt P11229)
T4 sequence (whole entry): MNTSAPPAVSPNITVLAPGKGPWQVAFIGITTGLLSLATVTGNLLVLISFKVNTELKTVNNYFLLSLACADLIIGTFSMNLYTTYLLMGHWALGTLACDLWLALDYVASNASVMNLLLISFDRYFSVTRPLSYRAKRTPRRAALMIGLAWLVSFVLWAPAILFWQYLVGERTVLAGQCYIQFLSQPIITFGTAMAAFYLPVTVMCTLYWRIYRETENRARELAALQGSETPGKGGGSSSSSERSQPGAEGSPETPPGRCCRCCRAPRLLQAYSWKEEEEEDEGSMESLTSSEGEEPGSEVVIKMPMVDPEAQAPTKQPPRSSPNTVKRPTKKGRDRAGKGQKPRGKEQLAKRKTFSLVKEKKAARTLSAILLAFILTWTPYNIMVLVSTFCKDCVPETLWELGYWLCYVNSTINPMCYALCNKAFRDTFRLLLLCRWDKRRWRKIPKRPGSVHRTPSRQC
Description: PDSP Primary Binding target: CHRM1 - Compounds are tested at 10 uM concentration, plate are incubated at room temperature in the dark for 90 minutes. Reaction are stopped by vacuum filtration onto 0.3% polyethyleneimine soaked filter mats using Filtermate harvester. Scintilation cocktail is then melted onto microwave-dried filters on a hot plate and the radio activity is counted in Microbia counter.

[19] = molecular target: D(1B) dopamine receptor (Homo sapiens) (UniProt P21918)
Description: PDSP Primary Binding target: DRD5 - Compounds are tested at 10 uM concentration, plate are incubated at room temperature in the dark for 90 minutes. Reaction are stopped by vacuum filtration onto 0.3% polyethyleneimine soaked filter mats using Filtermate harvester. Scintilation cocktail is then melted onto microwave-dried filters on a hot plate and the radio activity is counted in Microbia counter.

Chain of Beta-3 adrenergic receptor (Homo sapiens) (P13945 whole entry, looked up): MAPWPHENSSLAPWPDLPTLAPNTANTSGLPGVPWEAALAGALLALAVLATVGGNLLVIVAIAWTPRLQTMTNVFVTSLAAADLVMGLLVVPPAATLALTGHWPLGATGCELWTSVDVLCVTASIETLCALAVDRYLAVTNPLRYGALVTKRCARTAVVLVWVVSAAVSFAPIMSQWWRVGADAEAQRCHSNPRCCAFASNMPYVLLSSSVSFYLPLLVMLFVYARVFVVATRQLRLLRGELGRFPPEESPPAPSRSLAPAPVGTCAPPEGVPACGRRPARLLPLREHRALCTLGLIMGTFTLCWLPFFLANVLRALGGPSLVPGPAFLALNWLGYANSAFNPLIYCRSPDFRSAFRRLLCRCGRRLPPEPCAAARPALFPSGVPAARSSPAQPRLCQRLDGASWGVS
Chain of Delta-type opioid receptor (Homo sapiens) (P41143 whole entry): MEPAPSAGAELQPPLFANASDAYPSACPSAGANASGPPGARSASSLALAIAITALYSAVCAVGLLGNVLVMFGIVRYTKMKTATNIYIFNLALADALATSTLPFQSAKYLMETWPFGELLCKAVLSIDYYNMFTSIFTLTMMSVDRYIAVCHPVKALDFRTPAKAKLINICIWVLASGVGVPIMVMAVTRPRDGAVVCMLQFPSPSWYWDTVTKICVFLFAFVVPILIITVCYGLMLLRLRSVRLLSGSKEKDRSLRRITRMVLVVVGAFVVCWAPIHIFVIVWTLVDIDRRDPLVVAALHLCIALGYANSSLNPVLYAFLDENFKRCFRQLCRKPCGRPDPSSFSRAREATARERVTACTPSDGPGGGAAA
Chain of Histamine H2 receptor (Homo sapiens) (P25021 whole entry): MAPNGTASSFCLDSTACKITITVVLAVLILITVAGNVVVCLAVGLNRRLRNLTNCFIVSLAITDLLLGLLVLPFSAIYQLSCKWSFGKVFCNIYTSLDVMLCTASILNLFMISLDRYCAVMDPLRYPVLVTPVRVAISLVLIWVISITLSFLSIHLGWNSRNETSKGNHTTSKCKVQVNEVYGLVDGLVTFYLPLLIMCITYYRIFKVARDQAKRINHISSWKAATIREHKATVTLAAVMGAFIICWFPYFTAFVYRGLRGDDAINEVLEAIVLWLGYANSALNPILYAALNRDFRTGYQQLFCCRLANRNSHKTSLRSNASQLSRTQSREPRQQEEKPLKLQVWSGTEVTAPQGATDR
Chain of 5-hydroxytryptamine receptor 7 (Homo sapiens) (P34969 whole entry): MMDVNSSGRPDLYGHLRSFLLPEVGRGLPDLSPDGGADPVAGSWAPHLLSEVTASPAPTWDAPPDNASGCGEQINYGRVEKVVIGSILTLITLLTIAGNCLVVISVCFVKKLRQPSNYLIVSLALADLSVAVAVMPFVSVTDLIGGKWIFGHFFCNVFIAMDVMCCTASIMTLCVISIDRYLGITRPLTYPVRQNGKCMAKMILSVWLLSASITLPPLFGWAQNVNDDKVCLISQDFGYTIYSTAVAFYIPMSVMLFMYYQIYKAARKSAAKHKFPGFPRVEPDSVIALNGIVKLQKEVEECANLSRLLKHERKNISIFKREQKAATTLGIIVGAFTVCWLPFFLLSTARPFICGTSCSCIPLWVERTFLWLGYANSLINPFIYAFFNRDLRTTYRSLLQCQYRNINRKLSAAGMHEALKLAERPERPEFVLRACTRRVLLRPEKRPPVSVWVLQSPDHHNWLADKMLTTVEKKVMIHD
Chain of D(1A) dopamine receptor (Homo sapiens) (P21728 whole entry): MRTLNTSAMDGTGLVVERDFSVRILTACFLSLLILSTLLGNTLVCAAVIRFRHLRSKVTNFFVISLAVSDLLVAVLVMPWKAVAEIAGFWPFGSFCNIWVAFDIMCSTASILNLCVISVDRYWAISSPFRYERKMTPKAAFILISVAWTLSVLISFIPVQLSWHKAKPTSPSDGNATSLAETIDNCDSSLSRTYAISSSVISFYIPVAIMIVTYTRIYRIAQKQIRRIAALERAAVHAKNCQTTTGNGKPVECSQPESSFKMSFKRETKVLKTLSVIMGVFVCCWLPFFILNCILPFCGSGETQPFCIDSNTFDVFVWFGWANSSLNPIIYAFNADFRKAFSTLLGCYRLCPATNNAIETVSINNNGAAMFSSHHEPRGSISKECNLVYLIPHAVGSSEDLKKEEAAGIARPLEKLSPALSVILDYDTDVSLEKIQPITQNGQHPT
Chain of 5-hydroxytryptamine receptor 6 (Homo sapiens) (P50406 whole entry): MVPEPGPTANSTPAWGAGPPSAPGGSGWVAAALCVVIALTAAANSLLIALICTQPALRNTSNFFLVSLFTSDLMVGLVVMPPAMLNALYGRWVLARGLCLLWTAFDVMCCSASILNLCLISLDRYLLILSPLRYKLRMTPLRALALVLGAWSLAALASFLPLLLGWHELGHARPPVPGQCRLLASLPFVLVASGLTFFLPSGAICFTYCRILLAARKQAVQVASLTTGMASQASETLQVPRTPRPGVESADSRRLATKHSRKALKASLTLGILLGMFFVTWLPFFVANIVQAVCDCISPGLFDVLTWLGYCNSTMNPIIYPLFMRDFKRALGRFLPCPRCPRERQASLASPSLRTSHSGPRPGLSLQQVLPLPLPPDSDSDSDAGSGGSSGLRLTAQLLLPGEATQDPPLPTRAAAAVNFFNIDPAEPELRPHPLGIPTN
Chain of Sigma intracellular receptor 2 (Homo sapiens) (Q5BJF2 whole entry): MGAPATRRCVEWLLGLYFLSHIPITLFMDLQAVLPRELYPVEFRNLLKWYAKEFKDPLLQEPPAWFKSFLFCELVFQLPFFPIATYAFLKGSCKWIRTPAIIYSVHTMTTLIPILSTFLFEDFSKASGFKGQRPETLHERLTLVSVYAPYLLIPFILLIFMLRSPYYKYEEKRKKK
Chain of Sodium-dependent noradrenaline transporter (Homo sapiens) (P23975 whole entry): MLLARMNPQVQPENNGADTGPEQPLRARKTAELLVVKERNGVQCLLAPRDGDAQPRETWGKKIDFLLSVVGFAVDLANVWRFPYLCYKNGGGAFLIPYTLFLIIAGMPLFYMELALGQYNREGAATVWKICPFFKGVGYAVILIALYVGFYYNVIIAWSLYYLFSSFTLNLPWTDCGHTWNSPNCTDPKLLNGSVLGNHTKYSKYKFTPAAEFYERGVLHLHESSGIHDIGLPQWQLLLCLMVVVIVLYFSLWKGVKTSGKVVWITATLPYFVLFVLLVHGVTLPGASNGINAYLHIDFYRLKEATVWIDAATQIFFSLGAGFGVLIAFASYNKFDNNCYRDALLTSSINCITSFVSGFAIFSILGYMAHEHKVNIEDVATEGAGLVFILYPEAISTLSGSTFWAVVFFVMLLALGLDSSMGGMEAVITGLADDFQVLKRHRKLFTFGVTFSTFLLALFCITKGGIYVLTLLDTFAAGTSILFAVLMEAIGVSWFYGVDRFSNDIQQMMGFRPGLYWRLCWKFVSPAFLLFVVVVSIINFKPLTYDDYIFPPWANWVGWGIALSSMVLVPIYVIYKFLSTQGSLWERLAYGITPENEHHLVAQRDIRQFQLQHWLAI
Chain of Mu-type opioid receptor (Homo sapiens) (P35372 whole entry): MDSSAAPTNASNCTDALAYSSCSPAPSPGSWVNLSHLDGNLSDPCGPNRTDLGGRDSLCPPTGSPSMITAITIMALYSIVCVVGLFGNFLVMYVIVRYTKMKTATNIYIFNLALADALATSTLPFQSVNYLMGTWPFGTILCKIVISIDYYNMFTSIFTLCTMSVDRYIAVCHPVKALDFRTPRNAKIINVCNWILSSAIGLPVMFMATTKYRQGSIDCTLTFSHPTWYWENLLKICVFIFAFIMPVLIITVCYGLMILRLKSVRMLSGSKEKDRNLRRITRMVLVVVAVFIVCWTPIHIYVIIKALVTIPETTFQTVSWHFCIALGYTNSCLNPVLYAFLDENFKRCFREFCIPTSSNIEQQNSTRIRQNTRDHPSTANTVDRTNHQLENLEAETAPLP
Chain of 5-hydroxytryptamine receptor 2A (Homo sapiens) (P28223 whole entry): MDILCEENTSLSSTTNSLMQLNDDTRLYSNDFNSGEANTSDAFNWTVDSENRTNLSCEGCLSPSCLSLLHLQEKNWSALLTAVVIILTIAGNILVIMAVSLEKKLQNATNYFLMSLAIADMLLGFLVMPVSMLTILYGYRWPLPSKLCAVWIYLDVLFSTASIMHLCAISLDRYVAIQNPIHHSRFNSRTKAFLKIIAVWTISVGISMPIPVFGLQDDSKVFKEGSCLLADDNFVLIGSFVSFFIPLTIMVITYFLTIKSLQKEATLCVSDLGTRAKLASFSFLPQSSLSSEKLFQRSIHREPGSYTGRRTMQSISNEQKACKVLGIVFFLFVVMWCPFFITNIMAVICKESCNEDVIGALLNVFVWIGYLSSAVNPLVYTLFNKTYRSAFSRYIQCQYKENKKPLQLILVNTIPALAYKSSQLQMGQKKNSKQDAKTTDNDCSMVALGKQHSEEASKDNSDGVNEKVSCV
Chain of Beta-2 adrenergic receptor (Homo sapiens) (P07550 whole entry, looked up): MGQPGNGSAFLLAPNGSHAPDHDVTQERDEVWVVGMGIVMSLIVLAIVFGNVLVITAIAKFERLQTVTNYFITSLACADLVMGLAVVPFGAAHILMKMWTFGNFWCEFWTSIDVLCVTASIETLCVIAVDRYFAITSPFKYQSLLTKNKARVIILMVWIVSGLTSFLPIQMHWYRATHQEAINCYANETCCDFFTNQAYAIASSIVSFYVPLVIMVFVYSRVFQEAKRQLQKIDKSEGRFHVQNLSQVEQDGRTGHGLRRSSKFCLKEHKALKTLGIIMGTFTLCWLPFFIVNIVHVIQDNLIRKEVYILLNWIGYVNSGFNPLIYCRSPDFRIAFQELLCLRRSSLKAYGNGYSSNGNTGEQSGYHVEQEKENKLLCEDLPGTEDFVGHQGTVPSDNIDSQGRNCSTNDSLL

Structure (SMILES)	inhibition [1]	inhibition [2]	inhibition [3]	inhibition [4]	inhibition [5]	inhibition [6]	inhibition [7]	inhibition [8]	inhibition [9]	inhibition [10]	inhibition [11]	inhibition [12]	inhibition [13]	inhibition [14]	inhibition [15]	inhibition [16]	inhibition [17]	inhibition [18]	inhibition [19]
CN(C(=O)Cc1ccc(Cl)c(Cl)c1)C(CN1CCCC1)c1cccc(OCC(=O)O)c1 (stereo not drawn)	3.8%	20.5%	-5.04%	42.8%	0.97%	-9.81%	71.9%	87.5%	26.4%	21.9%	-9.83%	28.1%	–	–	–	–	–	–	–
COc1ccc(/C=C/CCCCOc2ccc(C(=O)c3cccc(C(=O)O)c3)cc2CCC(=O)O)cc1	1.56%	49.6%	–	33.6%	29.1%	-2.54%	46.8%	22.4%	23.6%	2.85%	30.7%	21.3%	-5.5%	-0.17%	31.8%	-6.68%	–	–	–
COc1ccccc1CN[C@H]1C2CCN(CC2)[C@H]1C(c1ccccc1)c1ccccc1	1.59%	17%	–	13.4%	8.17%	-6.37%	–	9.53%	40%	62.5%	-1.7%	8.86%	1.04%	–	–	–	-4.3%	–	–
CC[C@@H]1CN2C(=O)N(C)c3nc(-c4ccccc4)[nH]c3C2=N1	-1.57%	21.2%	65.2%	53.6%	10.3%	21.6%	-7.99%	-6.84%	0.34%	4.68%	19.4%	0.52%	-5.35%	–	–	19.5%	–	1.36%	9.96%
CCCCCNC(=O)NS(=O)(=O)c1cc([N+](=O)[O-])ccc1NC1CCCCC1	-0.86%	18.5%	-4.07%	–	12.8%	–	8.56%	26.7%	26.3%	3.25%	39.7%	-2.95%	13.4%	-2.52%	12.4%	83.9%	4.78%	-6.06%	4.44%
CCCCN(CCCC)C(=O)CN1C[C@@H](c2ccc3c(c2)OCO3)[C@H](C(=O)O)[C@H]1c1ccc(OC)cc1	-5.48%	-6.31%	–	13.8%	–	-7.92%	-0.59%	0.92%	25.8%	-0.23%	-9.03%	31%	-5.54%	-3.74%	-9.55%	5.56%	7.9%	-7.47%	–
